The target in this test is human σ2 receptor (TMEM97) (Homo sapiens, UniProt Q5BJF2). Description: biochemical. The format is Expi293 membranes. As to conditions: read-out: % of control remaining.

This note sets out measurements from publication doi:10.1101/2021.04.29.441652v1 (biorxiv, 2021).

Chain of human σ2 receptor (TMEM97) (Q5BJF2 whole entry): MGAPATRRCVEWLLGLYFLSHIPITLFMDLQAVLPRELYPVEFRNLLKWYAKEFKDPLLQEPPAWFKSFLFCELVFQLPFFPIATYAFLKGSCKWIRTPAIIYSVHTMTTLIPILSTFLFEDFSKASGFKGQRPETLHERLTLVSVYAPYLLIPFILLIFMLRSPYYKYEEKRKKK

With `CC(C)N1C[C@H](NC(=O)N[C@@H](C)c2ccc(Br)s2)[C@@H](C)C1` [ZINC000436303801], the remaining activity at 1 µM came out at 75.3%.
With `C[C@@H]1CCC[C@@H](NC(=O)CN2CCN(CC[C@@H]3CCOC3)CC2)C1` [ZINC000438095302] the figure was 38.1%; with `Cc1c(C(=O)NCC2CCCC2)cnc2c1c(=O)n(C)c(=O)n2C` [ZINC000438905691], 105%.
With `C[C@@H]1C[C@@H](c2ccccc2)CCN1Cc1nc(C2CC2)cs1` [ZINC000439311985], the remaining activity at 1 µM is 106%.
With `CO[C@H](C)CS(=O)(=O)N1CCN(C(=O)C(=O)N2CCCC2)CC1` [ZINC000442921898] the figure was 111%; with `CCO[C@@H]1C[C@](CO)(NC[C@H](O)COC2CCOCC2)C1(C)C` [ZINC000444807044], 120%; with `O[C@@H](CN[C@@H](c1ccc(Br)cc1Cl)C1CC1)CN1CCCC1` [ZINC000446751851], 20.8%.
Under `CCC(CC)n1ccc(CN2CC=C(c3ccc(O)cc3)CC2)n1` [ZINC000448446275] stands 38.7%.
Under `C[C@@H]1CCC[C@H](NC(=O)CN2CCN(CCC3=CCCCC3)CC2)C1` [ZINC000450551910] stands 16%; under `CS[C@@H]1CCN(C[C@@H](O)COC(c2ccc(F)cc2)c2ccc(F)cc2)C1` [ZINC000451319844], 63%.
For `O=C([C@@H]1C[C@H]1C(F)(F)F)N(CCN1CCCCCC1)C1CCC1` [ZINC000452023252], the remaining activity at 1 µM was found to be 37.5%.
Under `CC(C)N1CC[C@H](N(C)S(=O)(=O)C[C@H]2CCCCC2(F)F)C1` [ZINC000452100574] stands 73.3%.
Under `CC(C)N1CC[C@@H](N(C)S(=O)(=O)c2c(F)c(F)cc(F)c2F)C1` [ZINC000452107481] stands 36.9%; under `C[C@H](CCCc1cccnc1)N[C@@H](C)Cn1cccn1` [ZINC000453142034], 24.9%; under `C[C@@H](CC(N)=O)NC[C@H](CO)Cc1cc(Br)ccc1F` [ZINC000453336584], 100%.
As to `COc1cccnc1CN[C@H](Cc1ccc(C)cc1)C1CC1` [ZINC000453351921], the remaining activity at 1 µM was 69.2%.
Consider `Cc1ccc(C[C@H](CO)NCc2cccc(F)c2)cc1C` [ZINC000453607577], for which the remaining activity at 1 µM came out at 86.8%.
`CN1CC[C@@H](CNC(=O)Nc2cc(F)ccc2Oc2ccccc2)C1` [ZINC000454705882]: the remaining activity at 1 µM was found to be 87.6%.
With `CCN(CC)[C@H]1CCN(CC(=O)N[C@@H](c2ccccc2)c2cccs2)C1` [ZINC000464767692] the figure was 73.8%.
As for `CCN(CC)[C@H]1CCN(C(=O)NCCCc2cccc(Cl)c2)C1` [ZINC000465804078], the remaining activity at 1 µM came to 67.7%.
Regarding `C[C@@H]1CN(C2CC2)C[C@H]1NC(=O)N(Cc1cccc(Br)c1)C1CC1` [ZINC000466933503], the remaining activity at 1 µM was found to be 84.3%.
Take `CC(C)CO[C@H]1CCN([C@@H](C)C(=O)N(C)Cc2ccc(Br)cc2)C1` [ZINC000468894194]: the remaining activity at 1 µM amounted to 35.4%.
For the compound `C[C@@H]1[C@H](Cc2ccccc2)CCN1Cc1cc(=O)n2cc(Cl)ccc2n1` [ZINC000472356611], the remaining activity at 1 µM was 45.9%.
Turning to `COc1ccnc(N2CCN([C@H](C)CCSc3ccccc3)CC2)n1` [ZINC000473272986], the remaining activity at 1 µM came out at 66.5%.
For the compound `C[C@H](NC[C@H](CO)Cc1c(F)cccc1Cl)c1ccco1` [ZINC000483826940], the remaining activity at 1 µM amounted to 22.5%.
Under `CCCCNC(=O)[C@H](C)N1CC[C@](C)(CNC(=O)OC(C)(C)C)C1` [ZINC000495656270] stands 45.1%.
Under `CN(C[C@H](O)CN[C@@H]1C[C@H]2CCCCN2C1=O)C(=O)OC(C)(C)C` [ZINC000496403719] stands 92.4%; under `C[C@]1(c2ccccc2)CCCN(CC(=O)N2CCc3ccccc32)C1` [ZINC000500192494], 69.3%; under `C[C@@H]1CCN(CC(=O)N(C)[C@@H](C)c2ccc(F)c(F)c2)C[C@@H]1C` [ZINC000501775665], 20.4%.
Under `COCCN1CCC(N[C@H]2COc3cc(F)c(Br)cc32)CC1` [ZINC000504552433] stands 49.2%.
`CC[C@H]1CN(Cc2ccc(-c3ccccc3)cc2F)C[C@H]1O` [ZINC000507809396]: the remaining activity at 1 µM amounted to 14%.
With `Brc1ccccc1CNc1nccn1Cc1ccccc1` [ZINC000508455082] the figure was 69.3%; with `Cc1cccc(CNc2nccn2Cc2ccccc2)c1C` [ZINC000508475661], 38.6%.
Turning to `C[C@H]1C[C@H](N2CCCC2)CN1CC(=O)N(Cc1ccccc1)c1ccccc1` [ZINC000512182007], the remaining activity at 1 µM worked out at 31.6%.
Take `Cc1ccccc1[C@@H]1CCN([C@H](C)C(=O)NCCc2ccccc2)C1` [ZINC000513818302]: the remaining activity at 1 µM amounted to 89.1%.
Under `Cc1cccc(NC(=O)N(C)C[C@H]2CCCN2C)c1C(=O)N1CCCC1` [ZINC000516964180] stands 99.3%; under `NC(=O)[C@H](Cc1ccc(Cl)cc1)NCc1cc2ccccc2s1` [ZINC000517634594], 98.7%; under `Cc1ccccc1[C@H](OC[C@H](O)CN1Cc2ccccc2C1)c1ccccc1` [ZINC000518003593], 79.8%.
Consider `Cc1ccnc2nc(C(=O)N3CCN(CCN4CCCC4)CC3)nn12` [ZINC000518759550], for which the remaining activity at 1 µM was 115%.
`COc1cc(Cl)c(C)cc1NC(=O)[C@H](C)N(C)Cc1sccc1C` [ZINC000520440291]: the remaining activity at 1 µM came out at 102%.
With `O=C(Nc1cnc2ccccc2c1)[C@]1(O)CCN(Cc2ccccc2)C1` [ZINC000524392254] the figure was 93.9%; with `CC[C@@H]1CCC[C@H](NC(=O)[C@H](C)N2CCCCCC2)C1` [ZINC000525245955], 93.6%; with `Cc1cccc(C[C@H](CO)NCc2cnc(C3CCCCC3)s2)c1` [ZINC000526962900], 60.7%.
On to `C[C@@H](N[C@H]1Cc2ccccc2NC1=O)[C@@H]1C[C@H]1c1ccc(Cl)s1` [ZINC000528002641], for which the remaining activity at 1 µM amounted to 84%.
With `O=C(NC[C@@H]1CNCCO1)N1CCN(S(=O)(=O)C2CC2)CC1` [ZINC000529344158] the figure was 135%; with `C[C@@H](C(=O)Nc1cccc(C2CCCCC2)c1)N1CCN(C)CC1` [ZINC000529649527], 84.3%.
As to `CC1(C)[C@H](NC(=O)[C@]2(O)CCN(Cc3ccccc3)C2)[C@@H]2CCCO[C@@H]21` [ZINC000531059007], the remaining activity at 1 µM came out at 87.5%.
Take `CC(=O)N1CCN(C(=O)C(=O)Nc2cnn(-c3ccccn3)c2)CC1` [ZINC000531495018]: the remaining activity at 1 µM was found to be 99.3%.
As to `COC(=O)c1ccccc1NC(=O)CN1C[C@@H](c2ccccc2)C[C@@H]1C` [ZINC000532978237], the remaining activity at 1 µM stood at 119%.
Under `C[C@H](C(=O)Nc1ccc(F)cc1Cl)N1CC[C@H](N2CCCC2)C1` [ZINC000533411740] stands 79.7%; under `Cc1cc(NC(=O)[C@H](C)N2CCC[C@@H]([C@H](C)O)C2)ccc1Br` [ZINC000534109220], 70.4%; under `CCc1cc(N2CCC[C@@H](N[C@H](C)c3ccc(OC)c(Cl)c3)C2)ncn1` [ZINC000536865847], 36.3%.
With `CCCC1CCC(CN2CCN(CC(=O)N(CC)CC)CC2)CC1` (centres unmarked) [ZINC000539406733] the figure was 34%; with `C[C@@H](C(=O)NCc1ccccc1Cl)N1CC[C@H](n2ncc3ccccc32)C1` [ZINC000542825037], 107%; with `COc1cccc2ncnc(N3CCN(CC4CCOCC4)CC3)c12` [ZINC000543048256], 109%.
As for `FC(F)(F)c1cccc([C@@]2(F)CCN(C[C@@H]3CCSC3)C2)c1` [ZINC000549824186], the remaining activity at 1 µM came out at 20%.
Under `Cc1nc(CN2CC[C@H](CC3CC3)C2)nc2ccccc12` [ZINC000550423124] stands 43.5%; under `Cn1nccc1[C@@H]1CCC[C@@H](N[C@H]2CC3CCC2CC3)C1` [ZINC000550829396], 19.6%.
Take `CN1CCN(CCCCNC(=O)C(=O)N2CCSCC2)CC1` [ZINC000555574173]: the remaining activity at 1 µM came to 107%.
With `CC(C)OCCN1CCC(NC(=O)[C@@H]2CCc3nncn3C2)CC1` [ZINC000556484619], the remaining activity at 1 µM stood at 112%.
Take `CN1CC[C@](O)(CN[C@@H](c2sccc2Br)C2CCCCC2)C1` [ZINC000556573026]: the remaining activity at 1 µM was found to be 16.7%.
Under `CN1CCN(C(=O)C(=O)N2CCCN(C3CCCC3)CC2)CC1=O` [ZINC000556797005] stands 79.9%; under `COCCN1CCC[C@@H]1CNC(=O)C(=O)N1CCC[C@@H](C(C)C)CC1` [ZINC000557493019], 113%.
As to `CC1CCC(CNC(=O)C(=O)NC2CCN([C@@H]3CCC[C@@H]3O)CC2)CC1` (some centres unmarked) [ZINC000564110976], the remaining activity at 1 µM came to 78.2%.
Under `Cc1csc2nc(CN[C@H]3C[C@H](OCc4ccccc4)C3(C)C)cc(=O)n12` [ZINC000567338231] stands 34.7%; under `C[C@H](C(=O)NCc1ccc(Cl)cc1)N1CC[C@@H](c2cccnc2)C1` [ZINC000571080072], 64%.
Take `CCc1ccc([C@@H](C)N[C@@H]2CCCN(C(=O)CCC(F)(F)F)C2)s1` [ZINC000574285278]: the remaining activity at 1 µM came out at 76.2%.
As to `C[C@@H]1C[C@H](NC(=O)C(=O)N(C)Cc2c(Cl)cccc2Cl)CN1C1CC1` [ZINC000574318236], the remaining activity at 1 µM is 100%.
Take `CCc1nc2cc(CN[C@@H](C)CC(=O)N3CCCCCC3)ccc2n1C1CC1` [ZINC000574654702]: the remaining activity at 1 µM amounted to 48.4%.
For the compound `Cc1ccc2c(c1)[C@H](NC(=O)NC[C@@H]1CCN(C(C)C)C1)CCC2` [ZINC000575186982], the remaining activity at 1 µM stood at 22.9%.
Under `C[C@H](NC1CC1)C(=O)NCc1ccc(C(=O)N=c2cc[nH]cc2)cc1` [ZINC000576277949] stands 67.2%.
